# In patent publication US8962530B2, “Inflammatory bowel disease therapies” (Regents of the University of Colorado, priority 2007, dated 2015):
# Key:
# TNBS-induced colitis = test: Colon length shortening in TNBS-colitis model; type: in vivo; conditions: TNBS-colitis mice, vehicle-treated greater than 17%
# Source text: The effectiveness of compounds and methods of the present invention on intestinal barrier protection and treatment of inflammatory bowel disease (IBD) in TNBS (2,4,6-trinitrobenzene sulfonic acid)-induced colitis, an established animal model of inflammatory bowel disease, was examined. TNBS-induced colitis was induced in mice using a modification of techniques previously described. (See Morris et al (1989) Gastroenterology 96:795-803; Boirivant et al (1998) J Exp Med 188:1929-1939; Karhausen et al (2004) J Clin Invest 114:1098-1106.) Mice were shaved on the abdomen (causing total depletion of hair and microlesions) and were then sensitized to subsequent treatment by epicutaneous application of 1% TNBS (Sigma-Aldrich) in 100% ethanol on day minus 7. Seven days later, on day 0, animals were sedated with a 2.5% Tribromoethanol solution in phosphate-buffered saline (14 μl/g body weight), followed by intrarectal administration of a 2.5% TNBS solution in 50% ethanol (5 μl/g body weight). Administration of the 2.5% TNBS solution was carried out using an epidural catheter ([…] Plus Epidural Catheter, Arrow International), which was inserted approximately 6 cm ab ano followed by release of the TNBS solution. […] Colon length was determined by measurement of the distance from the most distal aspect of the cecum to the most terminal aspect of the rectum on day 3 post-induction of TNBS-colitis.
# TNFα mRNA = test: TNFα expression in colonic mucosal scrapings by real-time PCR, TNBS-colitis model; type: in vivo; conditions: TNBS-colitis mice; 40 mg/kg i.p. on day minus 1, day 0, day 1; day three; compared to non-treated TNBS-colitis mice; p<0.01
# Source text: The effectiveness of compounds and methods of the present invention on intestinal barrier protection and treatment of inflammatory bowel disease (IBD) in TNBS (2,4,6-trinitrobenzene sulfonic acid)-induced colitis, an established animal model of inflammatory bowel disease, was examined. TNBS-induced colitis was induced in mice using a modification of techniques previously described. (See Morris et al (1989) Gastroenterology 96:795-803; Boirivant et al (1998) J Exp Med 188:1929-1939; Karhausen et al (2004) J Clin Invest 114:1098-1106.)
# Mice were shaved on the abdomen (causing total depletion of hair and microlesions) and were then sensitized to subsequent treatment by epicutaneous application of 1% TNBS (Sigma-Aldrich) in 100% ethanol on day minus 7. Seven days later, on day 0, animals were sedated with a 2.5% Tribromoethanol solution in phosphate-buffered saline (14 μl/g body weight), followed by intrarectal administration of a 2.5% TNBS solution in 50% ethanol (5 μl/g body weight). […]
# Amplification cSycle parameters were as follows: 3 minutes at 95° C.; 40 cycles of 45 seconds at 95° C., 30 seconds at 58° C., 30 seconds at 72° C.; followed by repetitive melting cycles to establish amplification product specificity. Comparison of gene expression in a semi-quantitative manner was performed based on the mathematical model of Pfaffl. […]
smiles,measurement,setting,value
"O=C(O)CNC(=O)c1ncc2cc(Sc3ccccc3)ccc2c1O [Compound A, [(4-Hydroxy-7-phenylsulfanyl-isoquinoline-3-carbonyl)-amino]-acetic acid]",average decrease in colon length at day 3,"TNBS-induced colitis; 20 mg/kg i.p. on day minus 1, day 0, day 1",approximately 12%
same,average decrease in colon length at day 3,"TNBS-induced colitis; 40 mg/kg i.p. on day minus 1, day 0, day 1",~8%
same,TNFα mRNA levels in colonic mucosal scrapings,TNFα mRNA,significant decrease
